The text below walks through data of PMC4865845, “A human genome-wide loss-of-function screen identifies effective chikungunya antiviral drugs” (Nature Communications, 2016).

The data set deals with CHIKV. Type of data set: cell-based, chikungunya virus.

In turn, “Hs_SIMP_2 (sense CTGGCTTGTTAGGATATATAA; chemistry not given here) [reference compound]” came in with a Score_si1 of -2.63.
For the substance “Hs_GPSN2_1 (sense CTGGATCGGTTTCGCCATCAT; chemistry not given here)”, the Score_si2 was determined as 2.41.
“s79 (sense CCAGCTATCTATAACCTTA; chemistry not given here)” yielded a Score_si4 of 2.02.
Take “Hs_PITRM1_3 (CAGCGTTGAAAGTTTCCGATA; chemistry not given here) [reference compound]”: the Score_si2 is reported as -1.16.
As to “s19091 (sense CAACAACCTTACACGAGTA; chemistry not given here) [reference compound]”, the Score_si2 was -0.78.
Regarding “s38699 (CCAGGAACTATGACACGTA; chemistry not given here)”, the Score_si2 is given as 0.75.
“Hs_CGI-12_1 (sense AAGATGTTAACTGCAAATAAA; chemistry not given here) [reference compound]”: the Score_si1 is listed as -2.28.
Turning to “s617 (sense GGTCTTGGAGGGAATCCTA; chemistry not given here)”, the Score_si2 is 1.33.
In turn, “s33488 (CCACCTAGCTTGTAACGAA; chemistry not given here)” came in with a Score_si4 of 1.58.
For “s10858 (sense CCCGCTTTATCGAAGGCAA; chemistry not given here)”, the Score_si2 is reported as 1.05.
For “Hs_C14orf160_1 (AAAGATTTGAATTATAAATAA; chemistry not given here) [reference compound]”, the Score_si3 was -1.03.
In the case of “s15614 (sense GCAAGTCGTGAAACTATAA; chemistry not given here)”, the Score_si4 was 0.64.
Substance “s8292 (sense GGATTGTTATCCGACTGAA; chemistry not given here)” returned a Score_si3 of 1.63.
On to “Hs_GLTSCR2_4 (sense CAAGTTCAAACGCAAGTACAA; chemistry not given here)”, for which the Score_si2 is listed as 1.95.
In turn, “Hs_LTBP3_2 (CCGCTACTGCGTGGATGTGAA; chemistry not given here)” registered a Score_si4 of 1.32.
As for “s1522 (sense GGATCAAGCTGCCCATCTA; chemistry not given here)”, the Score_si2 came out at 1.17.
Take “Hs_UQCRFS1_2 (CAAACATTAATGTGAAATAAA; chemistry not given here)”: the Score_si4 turned out to be 0.3.
Turning to “Hs_NPEPL1_2 (CACCTTCCTCGAGGAGATTAA; chemistry not given here)”, the Score_si2 is on record as 1.71.
“Hs_D21S2056E_1 (CAGGGAATTCAGCTCCAGTAA; chemistry not given here)” displayed a Score_si1 of 2.83.
On to “Hs_PCBP1_3 (CACAACTTTATCATCCGCTAA; chemistry not given here)”, for which the Score_si2 came to 1.85.
Take “Hs_KRTCAP2_5 (sense CTCGCTCACTGCCTTCAATAA; chemistry not given here)”: the Score_si3 stood at 1.15.
Turning to “s21625 (sense GCAGCCTTGTTGCTCTTAA; chemistry not given here)”, the Score_si2 was 1.37.
The substance “Hs_GFRA4_2 (sense CAGGTCAGAGACCATCCAGAA; chemistry not given here)” yielded a Score_si1 of 1.82.
Substance “s24924 (sense CAGTCGTCCTCAGATGATA; chemistry not given here) [reference compound]” displayed a Score_si3 of -0.67.
On to “Hs_PRSS15_3 (sense TAGAAGCTATTTAATGATTAA; chemistry not given here)”, for which the Score_si4 was 1.21.
The substance “s31318 (GTACATCTTCGAATACGAT; chemistry not given here)” came in with a Score_si2 of 1.43.
“Hs_GNG13_4 (sense CCCACTCACTCCATCTTGTAA; chemistry not given here)”: the Score_si3 was determined as 1.13.
The substance “s31181 (CCACTCGTTTTGACTATTA; chemistry not given here)” registered a Score_si4 of 1.82.
“Hs_ENTPD2_2 (CGGCGTGATCTTCCAGAAGAA; chemistry not given here)”: the Score_si1 worked out at 1.32.
Regarding “s28993 (CCATAGATCTGAATTGGGA; chemistry not given here)”, the Score_si2 turned out to be 0.6.
The substance “s12109 (sense CAGCCCTTGTTCTCATCAA; chemistry not given here)” came in with a Score_si3 of 1.16.
The substance “Hs_MGC21830_1 (CCGGAGACAGCGGCTGATTTA; chemistry not given here) [reference compound]” came in with a Score_si1 of -1.05.
For the substance “s8261 (sense GGGTGGAGGTGTACTATGA; chemistry not given here)”, the Score_si3 is 0.99.
In the case of “Hs_HSPE1_6 (sense GAGGGAGTAATGGCAGGACAA; chemistry not given here)”, the Score_si1 is recorded as 2.37.
“Hs_PCQAP_10 (CAGCATCTAATTAAATTGCAT; chemistry not given here) [reference compound]” registered a Score_si3 of -0.74.
In the case of “s35401 (GGAACAAACTAGCCCTCAA; chemistry not given here)”, the Score_si2 is listed as 0.91.
On to “s15685 (sense GGATGAGAGTCGCACCTAT; chemistry not given here)”, for which the Score_si1 amounted to 2.03.
Same read-out and setting: the same measure for “Hs_NRCAM_4 (AGGGTGGTAAATATCCAGTTA; chemistry not given here)”: 1.08.
“s25624 (sense GGAATGGTGTTGATACAAA; chemistry not given here) [reference compound]” registered a Score_si3 of -0.7.
Regarding “s34427 (GGTCAGAGACCATCCAGAA; chemistry not given here)”, the Score_si2 worked out at 1.71.
In turn, “Hs_THRAP6_1 (sense ATGAAAGATTATTGTAATAAA; chemistry not given here) [reference compound]” registered a Score_si2 of -1.47.
With “s994 (GAGGAAGTCCTAAATCACA; chemistry not given here) [reference compound]”, the Score_si4 is recorded as 1.87.
In the case of “Hs_EEF2_2 (TGCCGTTTCTTTCAATATTTA; chemistry not given here)”, the Score_si1 turned out to be 2.07.
Regarding “Hs_EIF2B5_1 (CTTGTATATGTTAATATTAAA; chemistry not given here)”, the Score_si4 is 1.02.
Take “s1698 (CGAACTACACCTTCAGCTA; chemistry not given here) [reference compound]”: the Score_si3 is given as -0.99.
“Hs_MDS032_1 (TCGAATCATGCCTAAACTCAA; chemistry not given here)” gave a Score_si4 of 1.39.
On to “s16997 (CAGCTTCCATTATGCCCAA; chemistry not given here)”, for which the Score_si3 was 0.97.
Substance “Hs_PRPF4B_2 (sense CACCCTTAAATCGTTATTAAT; chemistry not given here)” returned a Score_si4 of 0.63.
Still for that read-out and setting: the same measure for “Hs_SIMP_1 (sense CAGGGAGACATTAGATCACAA; chemistry not given here) [reference compound]”: -0.7.
For the substance “Hs_ITGB4BP_3 (sense CAGGGAGACAGAAGAAATTCT; chemistry not given here)”, the Score_si1 was found to be 1.54.
Substance “Hs_RAB3D_3 (sense CTGGAACTATGGACCACATTA; chemistry not given here)” registered a Score_si4 of 0.77.
Substance “s25486 (sense GGTCTACAATCGGATGACA; chemistry not given here)” came in with a Score_si4 of 1.05.
